Data from patent publication US20220041681A1 (MEDIMMUNE LIMITED, priority 2016, published 2022).
Numbered stars: 1 amine (or outer) side, 2 acyl side, 3 side chain; on linkers, the order of the positions; unused ones are H or OH. Side chains are listed from the residue outwards. Peptide text beside a SMILES is read from it. * marks the point of attachment. γGlu = O=C(O)[C@H](CCC(=O)[*:2])N[*:1]; Palmitoyl = CCCCCCCCCCCCCCCC(=O)*

Legend:
Type in all cases: cell-based
Human GlucR = molecular target: T1, Human GlucR (Homo sapiens, UniProt P47871); assay: cAMP assay in presence of serum albumin (assay 2), 4.4% human serum albumin; conditions: relative potency GlucR / relative potency GLP1R vs native ligands
T1 construct: expressed in transfected cells
T1 sequence (P47871 26-477): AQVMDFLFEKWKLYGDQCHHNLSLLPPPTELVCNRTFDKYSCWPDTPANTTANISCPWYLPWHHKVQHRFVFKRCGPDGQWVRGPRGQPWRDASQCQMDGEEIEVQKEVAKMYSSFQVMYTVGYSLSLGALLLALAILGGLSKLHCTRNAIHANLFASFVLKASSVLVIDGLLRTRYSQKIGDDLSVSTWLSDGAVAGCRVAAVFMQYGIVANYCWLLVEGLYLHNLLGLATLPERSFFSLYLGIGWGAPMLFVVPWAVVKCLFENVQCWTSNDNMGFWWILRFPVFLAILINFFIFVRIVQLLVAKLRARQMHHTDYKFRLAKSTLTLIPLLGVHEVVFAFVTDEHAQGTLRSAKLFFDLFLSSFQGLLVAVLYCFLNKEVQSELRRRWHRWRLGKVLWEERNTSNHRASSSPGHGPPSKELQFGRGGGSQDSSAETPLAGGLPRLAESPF
Description: (§1) CHO cells with stable recombinant expression of the human, mouse or rat GlucR or GLP-t receptor were cultured in DMEM 10% FBS and geneticin (100 μg/mil). Cryopreserved cell stocks were prepared in 1× cell freezing medium-DMSO serum free (Sigma Aldrich) at 2×10^7/vial and stored at […]. […] Peptides were serially diluted in DMSO and then diluted 100 fold into DMEM containing serum albumin at stated final concentration. […] Cells were added to the assay plates and incubated for 30 min at room temperature. Following incubation the assay was stopped and cAMP levels measured using the HTRF® dynamic d2 cAMP assay kit available from CisBio Bioassays, as per the manufacturer's guidelines. Plates were read on Perkin Elmer ENVISION® fluorescence plate readers. Human and rat serum albumin were purchased from Sigma Aldrich and mouse serum albumin from Equitech Bio Ltd.

Mouse GlucR = molecular target: T2, Mouse GlucR (Mus musculus, UniProt Q61606); assay: cAMP assay in presence of serum albumin (assay 2), 3.2% mouse serum albumin; conditions: relative potencies vs native ligands
T2 construct: expressed in transfected cells
T2 sequence (Q61606 27-485): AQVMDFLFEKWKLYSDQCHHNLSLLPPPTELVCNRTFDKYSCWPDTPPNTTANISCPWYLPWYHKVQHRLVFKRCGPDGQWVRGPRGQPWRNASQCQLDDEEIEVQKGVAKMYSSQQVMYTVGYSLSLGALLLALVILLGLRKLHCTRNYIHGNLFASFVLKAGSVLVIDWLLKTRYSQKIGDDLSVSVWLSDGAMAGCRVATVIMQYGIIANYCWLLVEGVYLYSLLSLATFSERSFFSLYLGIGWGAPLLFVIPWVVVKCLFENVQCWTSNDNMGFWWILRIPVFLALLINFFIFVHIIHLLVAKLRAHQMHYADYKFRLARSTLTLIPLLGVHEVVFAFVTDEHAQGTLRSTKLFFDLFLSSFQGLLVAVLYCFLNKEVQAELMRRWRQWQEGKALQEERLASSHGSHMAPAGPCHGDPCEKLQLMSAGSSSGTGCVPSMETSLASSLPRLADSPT
Description: as §1

Human GIPr = molecular target: T3, Human GIPr (Homo sapiens, UniProt P48546); assay: cAMP activity assay (assay 1) in assay medium; conditions: Table 4, additional peptides, read-out: hGIPR EC50
T3 sequence (P48546 22-466): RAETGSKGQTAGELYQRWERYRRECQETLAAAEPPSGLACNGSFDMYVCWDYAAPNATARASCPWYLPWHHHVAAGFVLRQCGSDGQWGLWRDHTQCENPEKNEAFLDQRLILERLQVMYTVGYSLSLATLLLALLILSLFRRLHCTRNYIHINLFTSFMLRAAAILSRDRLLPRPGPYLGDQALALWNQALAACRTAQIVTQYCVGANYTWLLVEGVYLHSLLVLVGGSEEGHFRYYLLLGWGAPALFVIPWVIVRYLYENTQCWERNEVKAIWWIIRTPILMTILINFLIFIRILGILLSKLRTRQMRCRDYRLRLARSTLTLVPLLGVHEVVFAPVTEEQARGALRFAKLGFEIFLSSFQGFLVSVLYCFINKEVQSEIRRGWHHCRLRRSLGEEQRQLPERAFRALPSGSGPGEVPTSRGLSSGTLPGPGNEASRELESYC
Description: All sample dilutions were made in duplicate.
A frozen cryo-vial of cells expressing the receptor of interest was thawed rapidly in a water-bath, transferred to pre-warmed assay media and spun at 240×g for 5 minutes. Cells were re-suspended in assay media at an optimized concentration (e.g. hGCGR cells at 1×10^5 cells/ml, hGLP-1R and hGIPR cells at 0.5×10^5 cells/ml).
To this, 5 μL cell suspension was added and the plates incubated at room temperature for 30 minutes.
cAMP levels were measured using a commercially available cAMP dynamic 2 HTRF kit (Cisbio, Cat #62AM4PEJ), following the two step protocol as per manufacturer's recommendations. In brief; anti-cAMP cryptate (donor fluorophore) and cAMP-d2 (acceptor fluorophore) were made up separately by diluting each 120 in conjugate & lysis buffer provided in the kit. 5 μL anti-cAMP cryptate was added to all wells of the assay plate, and 5 μL cAMP-d2 added to all wells except non-specific binding (NSB) wells, to which conjugate and lysis buffer was added.

Compound: CCCCCCCCCCCCCCCC(=O)N[C@@H](CCC(=O)NCCCC[C@H](NC(=O)[C@H](CO)NC(=O)[C@H](CC(=O)O)NC(=O)[C@H](CC(C)C)NC(=O)[C@H](Cc1ccc(O)cc1)NC(=O)[C@H](CCCCN)NC(=O)[C@H](CO)NC(=O)[C@H](Cc1ccc(O)cc1)NC(=O)[C@H](CC(=O)O)NC(=O)[C@H](CO)NC(=O)[C@@H](NC(=O)[C@H](Cc1ccccc1)NC(=O)[C@@H](NC(=O)CNC(=O)[C@H](CCC(N)=O)NC(=O)CNC(=O)[C@@H](N)Cc1c[nH]cn1)[C@@H](C)O)[C@@H](C)O)C(=O)N[C@@H](CCCNC(=N)N)C(=O)N[C@@H](C)C(=O)N[C@@H](CCC(N)=O)C(=O)N[C@@H](CC(=O)O)C(=O)N[C@@H](Cc1ccccc1)C(=O)N[C@H](C(=O)N[C@@H](CCC(N)=O)C(=O)N[C@@H](Cc1c[nH]c2ccccc12)C(=O)N[C@@H](CC(C)C)C(=O)N[C@H](C(=O)N[C@@H](C)C(=O)NCC(=O)NCC(N)=O)C(C)C)C(C)C)C(=O)O [Peptide G380]
- Human GlucR/GLP1R Ratio (Human GlucR): 0.013
- Mouse GlucR/GLP1R Ratio (Mouse GlucR): 0.006

Compound: CCCCCCCCCCCCCCCC(=O)N[C@@H](CCC(=O)NCCCC[C@H](NC(=O)[C@H](Cc1ccc(O)cc1)NC(=O)[C@H](CCCCN)NC(=O)[C@H](CO)NC(=O)[C@H](Cc1ccc(O)cc1)NC(=O)[C@H](CC(=O)O)NC(=O)[C@H](CO)NC(=O)[C@@H](NC(=O)[C@H](Cc1ccccc1)NC(=O)[C@@H](NC(=O)CNC(=O)[C@H](CCC(N)=O)NC(=O)[C@H](CO)NC(=O)[C@@H](N)Cc1c[nH]cn1)[C@@H](C)O)[C@@H](C)O)C(=O)N[C@@H](CC(=O)O)C(=O)N[C@@H](CO)C(=O)N[C@@H](CCCNC(=N)N)C(=O)N[C@@H](CCCNC(=N)N)C(=O)N[C@@H](C)C(=O)N[C@@H](CCC(N)=O)C(=O)N[C@@H](CC(=O)O)C(=O)N[C@@H](Cc1ccccc1)C(=O)N[C@H](C(=O)N[C@@H](CCC(N)=O)C(=O)N[C@@H](Cc1c[nH]c2ccccc12)C(=O)N[C@@H](CC(C)C)C(=O)N[C@@H](CCC(=O)O)C(=O)N[C@@H](C)C(=O)NCC(=O)NCC(N)=O)C(C)C)C(=O)O [g601] (H-HSQGTFTSDYSKYK([γGlu-Palmitoyl])DSRRAQDFVQWLEAGG-NH2; N-terminus assumed)
- EC50 (Human GIPr): 0.0741 nM

Compound: CCCCCCCCCCCCCCCC(=O)N[C@@H](CCC(=O)NCCCC[C@H](NC(=O)[C@H](CO)NC(=O)[C@H](CC(=O)O)NC(=O)[C@H](CC(C)C)NC(=O)[C@H](Cc1ccc(O)cc1)NC(=O)[C@H](CCCCN)NC(=O)[C@H](CO)NC(=O)[C@H](Cc1ccc(O)cc1)NC(=O)[C@H](CC(=O)O)NC(=O)[C@H](CO)NC(=O)[C@@H](NC(=O)[C@H](Cc1ccccc1)NC(=O)[C@@H](NC(=O)CNC(=O)[C@H](CCC(N)=O)NC(=O)CNC(=O)[C@@H](N)Cc1c[nH]cn1)[C@@H](C)O)[C@@H](C)O)C(=O)N[C@@H](CCCNC(=N)N)C(=O)N[C@@H](C)C(=O)N[C@@H](CCCNC(=N)N)C(=O)N[C@@H](CC(=O)O)C(=O)N[C@@H](Cc1ccccc1)C(=O)N[C@H](C(=O)N[C@@H](CCC(=O)O)C(=O)N[C@@H](Cc1c[nH]c2ccccc12)C(=O)N[C@@H](CC(C)C)C(=O)N[C@H](C(=O)N[C@@H](C)C(=O)NCC(=O)NCC(N)=O)C(C)C)C(C)C)C(=O)O [g660] (H-HGQGTFTSDYSKYLDSK([γGlu-Palmitoyl])RARDFVEWLVAGG-NH2; N-terminus assumed)
- EC50 (Human GIPr): 3.32 nM
